Measurements published in article PMC10294837 (Antioxidants, 2023).
Read-outs that look alike come from different tables or passages of the source.

Columns and labels:
MAO-B = biological target: T1, MAO-B (Sus scrofa, UniProt Q6PLK3); experiment: MAO-B activity, radiolabeled [14C]PEA substrate, pig brain mitochondria; type: biochemical; settings: for Hill Slope, MAO-B / IC50 / Residual Activity, MAO-B: mean ± SEM, four measurements
T1 construct: from tissue; host or cells: pig brain cortex mitochondria
T1 sequence (Q6PLK3 1-520): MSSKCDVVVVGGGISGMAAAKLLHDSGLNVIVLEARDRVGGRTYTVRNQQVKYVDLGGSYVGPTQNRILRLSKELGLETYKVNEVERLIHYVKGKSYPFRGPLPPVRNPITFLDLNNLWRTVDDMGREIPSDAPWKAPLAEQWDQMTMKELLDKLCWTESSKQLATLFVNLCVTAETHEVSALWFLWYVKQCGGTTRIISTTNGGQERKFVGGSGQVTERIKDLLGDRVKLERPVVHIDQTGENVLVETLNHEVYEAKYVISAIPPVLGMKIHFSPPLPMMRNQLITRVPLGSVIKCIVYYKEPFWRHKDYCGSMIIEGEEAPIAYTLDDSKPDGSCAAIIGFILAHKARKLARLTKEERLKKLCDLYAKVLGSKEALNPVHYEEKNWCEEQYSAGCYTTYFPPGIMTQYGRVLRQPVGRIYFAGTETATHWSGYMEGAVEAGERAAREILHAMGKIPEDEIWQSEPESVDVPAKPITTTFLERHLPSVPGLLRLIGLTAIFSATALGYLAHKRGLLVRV
Experimental: (§1) KH buffer was used to preincubate mitochondria (final concentration of 800 µg/mL) with the tested drugs (concentration range of 0.1–300 µmol/L). MAO enzymatic activity was measured using radiolabeled substrates ([^3H]serotonin for MAO-A and [^14C]PEA for MAO-B). The reaction was terminated with hydrochloric acid, the organic phase was separated, and the radioactivity was determined by liquid scintillation counting (LS 6000IC, Beckman Instruments, Inc., Fullerton, CA, USA).
(§2) Four-parametric logistic regression was used to analyze inhibition of respiratory rate and MAO activity to determine half-maximal inhibitory concentration (IC50), residual activity, and Hill slope. Prism software from GraphPad (San Diego, CA, USA) was used for this analysis.

[1] = biological target: T2, malate dehydrogenase (MDH) (Sus scrofa, UniProt P00346); experiment: Activity of malate dehydrogenase in pig brain mitochondria; type: biochemical; settings: mean ± SD, N = 3
T2 construct: used to determinate mitochondrial enzymes activities (ETC complexes, CS, malate dehydrogenase, and MAO); from tissue; host or cells: pig brain cortex mitochondria (frozen, ultrasonicated)
T2 sequence (P00346 25-338): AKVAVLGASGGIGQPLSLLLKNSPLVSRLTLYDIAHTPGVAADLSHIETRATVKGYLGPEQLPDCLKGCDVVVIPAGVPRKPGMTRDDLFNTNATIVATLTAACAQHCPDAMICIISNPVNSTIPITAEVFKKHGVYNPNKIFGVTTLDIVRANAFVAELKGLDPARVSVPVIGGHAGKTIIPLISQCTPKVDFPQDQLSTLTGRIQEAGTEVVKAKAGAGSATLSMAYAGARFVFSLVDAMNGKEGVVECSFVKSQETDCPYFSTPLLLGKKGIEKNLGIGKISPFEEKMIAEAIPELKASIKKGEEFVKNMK
Experimental: Ultrasonicated mitochondria were incubated with the tested drugs for 30 min at 30 °C, with a corresponding drug-free control for every measurement. The activities of mitochondrial enzymes were determined as the absorbance measured with a GENESYS 180 UV-Vis spectrophotometer (Thermo Fisher Scientific, Waltham, MA, USA). The conversion of oxaloacetate to malate was used to measure malate dehydrogenase (MDH) activity. The reaction was started by adding oxaloacetate and nicotinamide adenine dinucleotide (NADH) (measured at 340 nm for 3 min). […] […] An ATP standard curve was constructed.

citrate synthase (CS) = biological target: T3, citrate synthase (CS) (Sus scrofa, UniProt P00889); experiment: Activity of citrate synthase in pig brain mitochondria; type: biochemical; settings: mean ± SD, N = 3
T3 construct: used to determinate mitochondrial enzymes activities (ETC complexes, CS, malate dehydrogenase, and MAO); from tissue; host or cells: pig brain cortex mitochondria (frozen, ultrasonicated)
T3 sequence (P00889 28-464): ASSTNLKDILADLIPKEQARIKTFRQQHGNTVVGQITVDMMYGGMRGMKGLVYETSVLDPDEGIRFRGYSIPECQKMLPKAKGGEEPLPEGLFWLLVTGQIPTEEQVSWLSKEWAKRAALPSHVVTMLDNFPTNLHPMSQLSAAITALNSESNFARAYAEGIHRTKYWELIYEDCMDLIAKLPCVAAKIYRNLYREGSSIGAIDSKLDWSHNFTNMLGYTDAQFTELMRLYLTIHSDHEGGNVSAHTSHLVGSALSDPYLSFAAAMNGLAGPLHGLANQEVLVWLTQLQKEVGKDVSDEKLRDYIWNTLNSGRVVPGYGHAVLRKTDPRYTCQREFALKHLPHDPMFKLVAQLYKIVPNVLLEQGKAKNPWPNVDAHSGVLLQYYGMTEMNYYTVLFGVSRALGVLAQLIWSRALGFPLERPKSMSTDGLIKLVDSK
Experimental: Ultrasonicated mitochondria were incubated with the tested drugs for 30 min at 30 °C, with a corresponding drug-free control for every measurement. The activities of mitochondrial enzymes were determined as the absorbance measured with a GENESYS 180 UV-Vis spectrophotometer (Thermo Fisher Scientific, Waltham, MA, USA). […] […] […] An ATP standard curve was constructed.

[2] = test system: complex II-linked respiration in isolated mitochondria; experiment: Complex II-linked respiration, high-resolution respirometry in isolated mitochondria; type: biochemical, pig
Experimental: (§3) The mitochondrial fraction was isolated and purified from the pig brain cortex. For high-resolution respirometry and ATP assays, freshly prepared mitochondria were kept on ice. Part of the mitochondria was frozen, stored at −70 °C, and used to determinate mitochondrial enzymes activities (ETC complexes, CS, malate dehydrogenase, and MAO).
The high-resolution Oxygraph-2k (Oroboros Instruments Corp, Innsbruck, Austria) was used to measure mitochondrial oxygen consumption rate. […] The final protein concentration was 0.05–0.14 mg/mL.
(§4) Respiration rate (oxygen flux) was quantified as the number of pmol of oxygen consumed per second per mg of a protein.
as §2

MAO-A = biological target: T4, MAO-A (Sus scrofa, UniProt Q6Q2J0); experiment: MAO-A activity, radiolabeled [3H]serotonin substrate, pig brain mitochondria; type: biochemical
T4 construct: from tissue; host or cells: pig brain cortex mitochondria
T4 sequence (Q6Q2J0 1-527): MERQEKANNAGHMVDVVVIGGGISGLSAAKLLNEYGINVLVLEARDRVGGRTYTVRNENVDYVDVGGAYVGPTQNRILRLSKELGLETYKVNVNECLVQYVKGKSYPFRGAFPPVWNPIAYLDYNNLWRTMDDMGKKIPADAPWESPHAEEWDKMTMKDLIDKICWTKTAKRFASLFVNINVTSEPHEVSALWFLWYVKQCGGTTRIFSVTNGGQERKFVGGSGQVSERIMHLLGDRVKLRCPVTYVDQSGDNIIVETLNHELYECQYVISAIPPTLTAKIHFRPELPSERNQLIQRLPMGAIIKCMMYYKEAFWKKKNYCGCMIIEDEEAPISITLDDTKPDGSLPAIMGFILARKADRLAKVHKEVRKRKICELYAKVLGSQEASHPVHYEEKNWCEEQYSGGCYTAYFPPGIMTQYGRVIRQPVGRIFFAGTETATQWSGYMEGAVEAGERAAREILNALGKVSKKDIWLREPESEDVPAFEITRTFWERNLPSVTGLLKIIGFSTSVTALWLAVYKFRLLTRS
Experimental: as §1, §2

[3] = test system: complex I-linked respiration in isolated mitochondria; experiment: Complex I-linked respiration, high-resolution respirometry in isolated mitochondria; type: biochemical, pig; settings: for IC50: four-parameter logistic; for IC50 / Residual Activity, complex I-linked respiration: mean ± SEM, four measurements
Experimental: as §3
The high-resolution Oxygraph-2k (Oroboros Instruments Corp, Innsbruck, Austria) was used to measure mitochondrial oxygen consumption rate.
as §4, §2

Inhibition (partial/full), MAO-B (MAO-B)	IC50 (MAO-B) [µM]	Inhibition (partial/full), MAO-A (MAO-A)	IC50 (MAO-A; mean ± SEM, four measurements) [µM]	Compound	Hill Slope, MAO-B (MAO-B)	Residual Activity, MAO-B (MAO-B) [rel.u.]	MDH (% of control) ([1]; 10 μM)	MDH (% of control) ([1]; 100 μM)	CS (% of control) (citrate synthase (CS); 10 μM)	CS (% of control) (citrate synthase (CS); 100 μM)	Residual Activity, MAO-A (MAO-A; mean ± SEM, four measurements) [rel.u.]	Inhibition (partial/full), complex I-linked respiration [3]	IC50 [3] [µM]	Residual Activity, complex I-linked respiration [3] [rel.u.]	also measured
full	15.2 ± 2.23	full	8.78 ± 2.27	CN(C)CCC[C@@]1(c2ccc(F)cc2)OCc2cc(C#N)ccc21 [escitalopram]	–	–	–	–	–	–	–	partial	0.14 ± 0.08	0.774 ± 0.015	Inhibition (partial/full), MAO-B (MAO-B; listed as ESC): full inhibitors; Inhibition (partial/full), MAO-A (MAO-A; listed as ESC): full inhibitors
full	2.19 ± 0.21	full	0.47 ± 0.06	Fc1ccc([C@@H]2CCNC[C@H]2COc2ccc3c(c2)OCO3)cc1 [paroxetine]	1.06 ± 0.10	0.015 ± 0.021	100.1 ± 2.22 % of control	97.9 ± 1.71 % of control	105.8 ± 1.69 % of control	98.4 ± 0.85 % of control	0.007 ± 0.017	partial	26.7 ± 6.73	0.672 ± 0.029	Inhibition (partial/full), MAO-B (MAO-B; listed as PAR): full inhibitors; Inhibition (partial/full), MAO-A (MAO-A; listed as PAR): full inhibitors; Hill Slope, MAO-A (MAO-A; mean ± SEM, four measurements): 1.65 ± 0.22

Compound	Inhibition (partial/full), MAO-B (MAO-B)	IC50 (MAO-B) [µM]	Inhibition (partial/full), MAO-A (MAO-A)	IC50 (MAO-A; mean ± SEM, four measurements) [µM]	Hill Slope, MAO-B (MAO-B)	Residual Activity, MAO-B (MAO-B) [rel.u.]	MDH (% of control) ([1]; 10 μM)	MDH (% of control) ([1]; 100 μM)	CS (% of control) (citrate synthase (CS); 10 μM)	CS (% of control) (citrate synthase (CS); 100 μM)	Residual Activity, MAO-A (MAO-A; mean ± SEM, four measurements) [rel.u.]	Inhibition (partial/full), complex I-linked respiration [3]	IC50 [3] [µM]	Residual Activity, complex I-linked respiration [3] [rel.u.]	also measured
CC(NC(C)(C)C)C(=O)c1cccc(Cl)c1 (stereo not shown) [bupropion]	partial	31.5 ± 3.32	partial	20.1 ± 5.68	1.68 ± 0.20	0.410 ± 0.018	99.2 ± 2.90 % of control	99.6 ± 2.72 % of control	105.6 ± 1.29 % of control	99.5 ± 0.93 % of control	0.235 ± 0.050	–	–	–	Inhibition (partial/full), MAO-B (MAO-B; listed as BUP): partial MAO-B inhibitors; Inhibition (partial/full), complex II-linked respiration [2]: partial; IC50 ([2]; four-parameter logistic, mean ± SEM, four measurements): 10.6 ± 4.49 µM; Inhibition (partial/full), complex II-linked respiration ([2]; listed as BUP): weak partial inhibitor; Residual Activity, complex II-linked respiration ([2]; mean ± SEM, four measurements): 0.690 ± 0.045 rel.u.; Inhibition (partial/full), MAO-A (MAO-A; listed as BUP): partial inhibitors
